Test results published in a melting point compilation (Tetko et al.; mined from patent text by program, amines drawn as free bases though some values may be those of a salt).

SMILES | melting point [°C]
Cn1c(=O)cc(CCc2cccc(Cl)c2)c2cc(C(O)(c3ccc(Cl)cc3)c3cccnc3)ccc21 (centres undefined) | 115
COc1ccc([C@@H]2C=C[C@H](C(=O)O)n3c(=O)n(CCCl)c(=O)n32)cc1 (relative stereo) | 158 to 161
N#Cc1cc(Oc2ccccc2)ccc1O | 112 to 114
O=c1[nH]cc(F)c(=S)[nH]1 | 254 to 255
CC1CCN(Cc2ccccc2)C1=Nc1ccccc1N1CCOCC1 (centres undefined) | 96 to 97
C=CC(=O)NCCCCOc1ccccc1 | 46 to 47
CCOC(=O)/C(=C\Nc1ccc(OC)cc1)c1ccc(OC)cc1 | 90 to 91
CCOC(=O)c1cnc2n(c1=O)CCCC2CC(=O)O (centres undefined) | 156 to 157
CC(C)(C#N)c1cc(O)cc2cc(-c3ccc(O)cc3)oc12 | 284
COC(=O)c1c(-c2ccncc2)[nH]c(-c2ccncc2)c1C | 245 to 247
O=[N+]([O-])C=C1SCCCN1S(=O)(=O)CCCCl | 99
CCOC(=NC(=O)OC)NC(=O)Nc1ccc(Cl)cc1Cl | 92 to 93
Cc1cc(C(=O)O)cc2c3ccccc3n(Cc3ccccc3)c12 | > 240
NN(CCCCO)c1nc2ccccc2o1 | 87 to 90
CCOc1ccc(C2=NN(c3ccc(C(=O)N4CCN(c5cnn(-c6ccccc6)c(=O)c5Cl)CC4)cc3)C(=O)[C@@H]3CC=CC[C@H]23)cc1OCC | 148 to 151
Cc1cccc(C)c1NC(=O)c1ccc(S(C)(=O)=O)cc1 | 164 to 166
CCP(=O)(CC)Cc1ccc(NC(=O)C2=Cc3cc(-c4ccc(C)cc4)ccc3OCC2)cc1 | 240 to 241
OCC1OC(n2cnc3c(NCC4(c5cccc(Cl)c5)CCC4)ncnc32)C(O)C1O (centres undefined) | 92 to 98
CCCc1c(OCCOc2ccccc2C(=O)OC)ccc(C(C)=O)c1O | 84 to 87
CCCCC(=NO)C(=O)OCC | 43.2 to 46.8
CCCc1nc(C(N)=O)c2n1-c1ccc(Cl)cc1C(c1ccccc1Cl)=NC2 | 298 to 300
CN1CCc2cc(NC(=O)/C=C/c3ccc(C(C)(C)C)cc3)ccc21 | 194
CCCN(CCC)C(=O)Cn1c(=O)[nH]c2cnc(-c3ccccc3)nc21 | 190 to 191
CSCCn1nc(-c2cc(C(C)(C)C)c(O)c(C(C)(C)C)c2)c2cccnc21 | 104 to 106
CN1CCN(c2ccc3nc(N)c(C#N)c(Cl)c3c2)CC1 | 189

SMILES | melting point [°C]
CC12CCC(=O)NC1=CCC1C2CCC2(C)C(=NN)CCC12 (centres undefined) | 379 to 382
Cn1cc(N2C=CN=CC2)ccc1=O | 166
Cc1ccc(Cl)c(Nc2ccccc2-c2nnc(N)o2)c1Cl | 255 to 257
FC(F)(F)c1ccc(-c2cc(C(F)(F)F)n3cnc(I)c3n2)cc1 | 141
CC(C)(C)c1ccc(N2CCCN(c3cc[nH]c(=S)c3C#N)CC2)cc1 | 257 to 258
CN1CN(C)c2nc3n(Cc4ccccc4)c(=O)cc(O)n3c2C1=O | 176 to 182
COC(=O)c1ccc2c3cccc4cccc(c5ccc(C(=O)N(C)c6cc(C(C)(C)C)ccc6C(C)(C)C)c1c25)c43 | 297 to 298
CSc1cc(C)nc(SC)c1NC(=O)CCCCCCCSc1nc2ccccc2s1 | 104 to 108
Cc1c(F)c(N2CCC(N)C2)c(Cl)c2c1c(=O)c(C(=O)O)cn2C1CC1 (centres undefined) | 124 to 126
O=C(NCCCCCn1cncn1)c1ccc(Br)cc1 | 93 to 95
CCCCCCCCCC(=O)SCC(C)(C(=O)Nc1cccc(C(=O)O)c1C)c1ccccc1 (centres undefined) | 105 to 111
COC=C(C(=O)OC)c1cccc([N+](=O)[O-])c1 | 101 to 103
NC(=O)CN1C(=O)C(=Cc2ccc(OCCc3ccccc3)c(OCc3ccccc3)c2)SC1=S | 212 to 214
O=C1Nc2ccc(-c3cccc(Cl)c3)cc2C(c2ccccc2)O1 (centres undefined) | 177 to 178
Cc1nc2c(O[C@@H]3c4ccccc4C[C@H]3O)cc(C(=O)N(C)C)cn2c1C (relative stereo) | 122
CC(=O)Nc1ccc(SC(F)(F)C(F)F)cc1 | 134 to 135
Cc1oc(-c2ccccc2)nc1COc1ccc(CCCc2nnn[nH]2)cn1 | 137 to 138
Cc1ncn(Nc2ccccc2)c1-c1ccccc1 | 165 to 167
CC(C)n1nc(-c2sc(NC(=O)NCc3ccccc3)nc2-c2ccccc2)ccc1=O | 200 to 201
O=C1CC(c2ccc(O)cc2)=Nc2ccc(N3CCCC3)cc21 | 304 to 306
NCCc1cc(-c2ccccc2)n(-c2ccc(S(N)(=O)=O)cc2)n1 | 189 to 192
O=C(/C=C/c1ccc(S(=O)(=O)N2CCN(c3cccc(C(F)(F)F)c3)CC2)cc1)NO | 178 to 179
CNC(=O)NC(=O)C(CC1CCC(=O)C1)c1ccc(Cl)c(Cl)c1 (centres undefined) | 70 to 74
CCOC(=O)c1ccc(NC(=O)N2CCc3cc(SC)c(C(F)(F)F)cc32)cc1 | > 200
